Legend:
[1] = target: T1, ERα (Homo sapiens, UniProt P03372); assay: Transactivation assay in stably transfected MCF-7 cells (MVLN assay); assay type: cell-based; set-up: MCF-7 cells endogenously expressing ERα; endogenous in cells; host or cells: MCF-7 stably transfected with vitellogenin-tk-luciferase reporter (MVLN)
T1 sequence (P03372 1-595): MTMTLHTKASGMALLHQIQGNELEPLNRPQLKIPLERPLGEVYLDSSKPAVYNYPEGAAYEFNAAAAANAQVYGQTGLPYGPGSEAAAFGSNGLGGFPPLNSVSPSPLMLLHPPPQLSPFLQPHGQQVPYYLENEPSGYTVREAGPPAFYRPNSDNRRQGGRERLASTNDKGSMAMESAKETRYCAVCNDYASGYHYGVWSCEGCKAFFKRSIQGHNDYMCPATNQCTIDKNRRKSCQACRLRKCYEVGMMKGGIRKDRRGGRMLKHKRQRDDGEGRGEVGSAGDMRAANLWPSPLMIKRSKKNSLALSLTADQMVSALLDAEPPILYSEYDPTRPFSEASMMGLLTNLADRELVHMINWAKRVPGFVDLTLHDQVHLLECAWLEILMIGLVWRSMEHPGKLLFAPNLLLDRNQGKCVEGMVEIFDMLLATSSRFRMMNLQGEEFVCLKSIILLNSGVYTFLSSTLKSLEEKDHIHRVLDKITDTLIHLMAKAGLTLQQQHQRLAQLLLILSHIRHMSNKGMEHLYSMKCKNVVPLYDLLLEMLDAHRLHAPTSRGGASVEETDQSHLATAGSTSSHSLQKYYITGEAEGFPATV
Protocol: To analyse activation of the ERα by diverse tool compounds in a second cellular system, we used MCF-7 cells endogenously expressing ERα and stably transfected with the estrogen-responsive vitellogenin-tk-luciferase reporter plasmid. […]. Luciferase activity was measured after addition of 25 μl steady-Glo in a TopCount. Dose response curves were generated and EC50 values were calculated using Sigma plot.

[2] = tested on: human cryopreserved hepatocytes; assay: Stability in hepatocytes; assay type: in vitro ADME; settings: maximal theoretical bioavailability
Protocol: The metabolic stability of test compounds with respect to phase 1 and phase 2 metabolisms was investigated by incubation of the compounds with hepatocytes. These investigations were performed for characterisation of compounds in case of phase 2 metabolism is to be expected. […] After analytical workup the concentrations of the test compounds after different incubation periods were related to the initial concentration of the respective test compound (zero hour's time point). The resulting area under the concentration-time-curve of the test compound investigated in the assay is used to derive the respective Fmax value.

[3] = tested on: hepatic gene CaBP; assay: Induction of the hepatic gene CaBP (hepatic estrogenicity); assay type: in vivo; settings: dose response curves, FIGS. 1-3
Text: Data regarding the uterine and hepatic activity of example 1 and example 4 in comparison to Ethinylestradiol are shown in FIGS. 1, 2, and 3. Dose response curves describing the increases in relative uterine weight (closed circles) and the induction of the hepatic gene CaBP (open circles) are shown for ethinylestradiol (FIG 1), example 1 (FIG. 2), and example 4 (FIG. 3). […] This may implicate that compounds of example 1 and 4 show lower hepatic estrogenicity if compared to Ethinylestradiol.

[4] = target: T2, ERα (Rattus norvegicus, UniProt P06211); assay: Stimulation of uterine growth in vivo in ovariectomized rats; set-up: species or system Wistar rats; settings: for uterotrophic activity (increase in relative uterine weight): dose response curves, FIGS. 2-3
T2 construct: from tissue; host or cells: uterus of ovariectomized adult female Wistar rats (in vivo)
T2 sequence (P06211 1-600): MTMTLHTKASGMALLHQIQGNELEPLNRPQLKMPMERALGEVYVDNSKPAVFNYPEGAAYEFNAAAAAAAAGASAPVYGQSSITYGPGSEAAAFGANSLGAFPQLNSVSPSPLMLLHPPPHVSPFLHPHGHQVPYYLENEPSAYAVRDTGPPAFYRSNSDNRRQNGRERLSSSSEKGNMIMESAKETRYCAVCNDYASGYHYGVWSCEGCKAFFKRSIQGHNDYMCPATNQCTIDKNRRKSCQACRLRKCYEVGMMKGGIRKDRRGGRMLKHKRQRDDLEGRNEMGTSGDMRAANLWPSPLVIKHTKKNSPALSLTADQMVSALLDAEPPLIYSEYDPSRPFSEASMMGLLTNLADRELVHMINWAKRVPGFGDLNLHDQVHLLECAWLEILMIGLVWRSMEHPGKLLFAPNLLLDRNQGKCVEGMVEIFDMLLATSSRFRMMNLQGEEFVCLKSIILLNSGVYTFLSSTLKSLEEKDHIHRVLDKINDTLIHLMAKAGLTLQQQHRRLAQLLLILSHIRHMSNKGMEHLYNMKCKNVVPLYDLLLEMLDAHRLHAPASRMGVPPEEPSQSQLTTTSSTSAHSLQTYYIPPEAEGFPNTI

[5] = target: T1, ERα; assay: Induction of alkaline phosphatase in human endometrial Ishikawa cells; assay type: cell-based; settings: 72 hours, read-out: EC50 Alkaline phoshatase induction, Ishikawa cells
Protocol: Alkaline phosphatase is an estrogen target gene in the normal uterine epithelium as well as in endometrial-derived cancer cells, such as Ishikawa cells. […]. Ishikawa cells (from European collection of cell cultures) were maintained in phenolred-free MEM with 5% FCS, 4 mM glutamine, 1% non, essential amino acids and 100 U/ml penicillin and 100 μg/ml streptomycin. […]. On the third day, the media were removed; cells were washed two times with 50 μl PBS and then frozen at −80° C. for 20 min. After thawing at room temperature for 10 min, cells were incubated with 100 μl of 1-Step PNPP reagent (Pierce) and incubated for 1.5 h at room temperature. OD was measured at 405 nm sing a Polarstar Optima. Dose response curves were generated using and ED50 values were calculated using Sigma plot.

[6] = target: T3, estrogen receptor α (ERα) (Homo sapiens, UniProt P03372); assay: Binding to estrogen receptor α (competition with 3H-estradiol); settings: KF = IC50 of test compound / IC50 of estradiol
T3 construct: made in house; host or cells: Hi5 insect cells (baculovirus)
Protocol: The ERα protein used in the binding assay was purified from cytosolic fractions of Hi5 cells transfected with recombinant bacuioviruses encoding either the human ERα. Aliquots of cytosolic fractions were stored at −80° C. and had protein concentrations of 5-7 mg/ml (as determined by the BCA method).
30 μl of cytosol were added leading to a final volume of 50 μl per well. […] The protein-bound radioactivity was measured by addition of 200 μl Microszint-40 (Canberra Packard) to each well using a TopCount scintillation counter.

[7] = target: T1, ERα; assay: Transactivation assay in U2OS cells; assay type: cell-based; settings: U2OS cells transiently transfected with ERα and luciferase reporter, 24 hours
[8] = luciferase reporter, Table 2, read-out: MVLN-Transactivation (EC50 in nM)

Compound `CC[C@]1(O)CCC2C3CCc4c(ccc5[nH]ncc45)C3CC[C@@]21C` (stereo partly drawn) [Example 6, 17α-Ethyl-2′H-pyrazolo[3′,4′:3,4]estra-1,3,5(10)-trien-17β-ol] has an EC50 [1, 8] of 130 nM.
`C=CC[C@]1(O)CCC2C3CCc4c(ccc5[nH]ncc45)C3CC[C@@]21C` (stereo partly drawn) [Example 7, 17α-Allyl-2′H-pyrazolo[3′,4′:3,4]estra-1,3,5(10)-trien-17β-ol] was tested, and the EC50 [1, 8] was 82.6 nM.
Work on `C[C@]1(O)CCC2C3CCc4c(ccc5[nH]ncc45)C3CC[C@@]21C` (stereo partly drawn) [Example 3, 17α-Methyl-2′H-pyrazolo[3′,4′:3,4]estra-1,3,5(10)-trien-17β-ol] yielded an EC50 [1, 8] of 3.53 nM.
For `C[C@]12CC[C@@H]3c4ccc(O)cc4CC[C@H]3[C@@H]1CC[C@@H]2O` [Estradiol, reference compound], the “Fmax (calculated from hepatocyte stability)” value [2] was 17%.
Compound `C[C@]12CCC3c4ccc5[nH]ncc5c4CCC3C1CC[C@@]2(O)C(F)(F)C(F)(F)F` (stereo partly drawn) [Example 10, 17α-Pentafluoroethyl-2′H-pyrazolo[3′,4′:3,4]estra-1,3,5(10)-trien-17β-ol] has an EC50 [1, 8] of 270 nM.
Work on `C[C@]12CCC3c4ccc5[nH]ncc5c4CCC3C1CC[C@@]2(O)C(F)(F)F` (stereo partly drawn) [Example 9, 17α-Trifluoromethyl-2′H-pyrazolo[3′,4′:3,4]estra-1,3,5(10)-trien-17β-ol] yielded an EC50 [1, 8] of 77.3 nM.
`C#C[C@]1(O)CC[C@H]2[C@@H]3CCc4cc(O)ccc4[C@H]3CC[C@@]21C` [Ethinylestradiol, reference compound] was tested, and the “induction of the hepatic gene CaBP” value [3] was “significant induction of CaBP”.
With `C[C@]12CCC3c4ccc5[nH]ncc5c4CCC3C1CCC2=O` (some centres unmarked) [Example 2, 2′H-Pyrazolo[3′,4′:3,4]estra-1,3,5(10)-trien-17-one] the EC50 [1, 8] was 12.6 nM.
With `C=C[C@]1(O)CCC2C3CCc4c(ccc5[nH]ncc45)C3CC[C@@]21C` (stereo partly drawn) [Example 5, 17α-Vinyl-2′H-pyrazolo[3′,4′:3,4]estra-1,3,5(10)-trien-17β-ol] the EC50 [1, 8] was 3.72 nM.
`C#C[C@]1(O)CCC2C3CCc4c(ccc5[nH]ncc45)C3CC[C@@]21C` (stereo partly drawn) [Example 4, 17α-Ethinyl-2′H-pyrazolo[3′,4′:3,4]estra-1,3,5(10)-trien-17β-ol] was tested, and the EC50 [1, 8] was 1.01 nM, the “induction of the hepatic gene CaBP” value [3] was “do not stimulate this hepatic gene” and the “uterotrophic activity (increase in relative uterine weight)” value [4] was “full uterotrophic activity”.
`C[C@]12CCC3c4ccc5[nH]nnc5c4CCC3C1CCC2=O` (some centres unmarked) [Example 11, 3′H-Triazolo[4′,5′:3,4]estra-1,3,5(10)-trien-17-on] showed an EC50 [1, 8] of 308 nM.
`CC#C[C@]1(O)CCC2C3CCc4c(ccc5[nH]ncc45)C3CC[C@@]21C` (stereo partly drawn) [Example 8, 17α-(Prop-1-inyl)-2′H-pyrazolo[3′,4′:3,4]estra-1,3,5(10)-trien-17β-ol] gave an EC50 [1, 8] of 16.5 nM.
For `C[C@]12CCC3c4ccc5[nH]ncc5c4CCC3C1CC[C@@H]2O` (stereo partly drawn) [Example 1, 2′H-Pyrazolo[3′,4′:3,4]estra-1,3,5(10)-trien-17β-ol], the EC50 [1, 8] was 1.41 nM, the EC50 ([1]; vitellogenin-tk-luciferase reporter, 24 hours, Table 1, read-out: EC50 ERα transactivation, MVLN assay) was 1.42 nM and the EC50 [5] was 0.759 nM. For the same compound, the “Fmax (calculated from hepatocyte stability)” value [2] was 34%, the “ERα binding [KF]” value [6] was 1.6 and the “induction of the hepatic gene CaBP” value [3] was “do not stimulate this hepatic gene”. The “uterotrophic activity (increase in relative uterine weight)” value [4] was “full uterotrophic activity”, the “ED50 Uterine growth” value ([4]; ovariectomized Wistar rats, subcutaneously daily for 14 days, relative uterine weight) was 8.25 μg/kg bodyweight and the EC50 [7] was 0.082 nM.

Source: patent US20110190246A1, “ESTRATRIENE DERIVATIVES COMPRISING HETEROCYCLIC BIOISOSTERES FOR THE PHENOLIC A-RING” (Bayer Schering Pharma Aktiengesellschaft, priority 2008, published 2011)
